Results published in the NIST ThermoML archive (doi:10.1021/je500314x).
Numbers after ± are expanded uncertainties.

Assays:
[1] = wn = mass fraction of the nth substance listed; conditions: Liquid, gamma densitometer
[2] = gamma densitometer

CCCCCCCC [octane] + CCCCCCC
[1]
Conditions	mass density [kg/m3]
303.1 K, 5100 kPa, w2 = 0.5	686.2 ± 3.9
313.3 K, 5100 kPa, w2 = 0.5	678.1 ± 3.9
323 K, 5100 kPa, w2 = 0.5	670 ± 3.8
332.7 K, 5100 kPa, w2 = 0.5	663.3 ± 3.7
344.1 K, 5100 kPa, w2 = 0.5	655.9 ± 3.9
353.2 K, 5100 kPa, w2 = 0.5	645.5 ± 3.9
362.9 K, 5100 kPa, w2 = 0.5	638.9 ± 3.8
372.3 K, 5100 kPa, w2 = 0.5	632.3 ± 3.8
374.7 K, 3300 kPa, w2 = 0.255	633.2 ± 4.2
374.8 K, 8000 kPa, w2 = 0.255	640.4 ± 4.2
380.5 K, 3200 kPa, w2 = 0.51	619.9 ± 4.2
380.5 K, 8700 kPa, w2 = 0.51	631.1 ± 4.2
383.2 K, 5100 kPa, w2 = 0.5	623.2 ± 3.9
393 K, 5100 kPa, w2 = 0.5	611.8 ± 3.9
405.1 K, 5100 kPa, w2 = 0.5	604.3 ± 4
413.8 K, 5100 kPa, w2 = 0.5	592.5 ± 4.7
424.2 K, 5100 kPa, w2 = 0.5	584.4 ± 4.5
424.4 K, 4900 kPa, w2 = 0.51	582.4 ± 4.8
424.5 K, 7200 kPa, w2 = 0.51	588 ± 4.2
429.4 K, 3500 kPa, w2 = 0.255	584 ± 4.2
429.4 K, 8300 kPa, w2 = 0.255	592.3 ± 4.4
433.2 K, 5100 kPa, w2 = 0.5	573.5 ± 5.5
443 K, 5100 kPa, w2 = 0.5	560.6 ± 4.4
453.1 K, 5100 kPa, w2 = 0.5	554.4 ± 3.8
464.5 K, 5100 kPa, w2 = 0.5	545.2 ± 4.8
466.6 K, 3200 kPa, w2 = 0.51	535.5 ± 4.2
466.7 K, 8600 kPa, w2 = 0.51	554.2 ± 4.7
473.6 K, 5100 kPa, w2 = 0.5	531.6 ± 4.8
475.8 K, 4400 kPa, w2 = 0.255	538.4 ± 5.8
475.9 K, 8500 kPa, w2 = 0.255	554.4 ± 4.4
484.2 K, 5100 kPa, w2 = 0.5	524 ± 5.3
492.8 K, 5100 kPa, w2 = 0.5	508 ± 6.3
503.1 K, 5100 kPa, w2 = 0.5	495.9 ± 5.3
513.2 K, 5100 kPa, w2 = 0.5	483.6 ± 5.4
518 K, 4900 kPa, w2 = 0.51	479.1 ± 5.4
518 K, 7500 kPa, w2 = 0.51	494.8 ± 4.6
522.4 K, 5100 kPa, w2 = 0.5	470.1 ± 7.2
525.5 K, 4700 kPa, w2 = 0.255	473.6 ± 5.8
525.5 K, 7300 kPa, w2 = 0.255	493.5 ± 4.9
533 K, 5100 kPa, w2 = 0.5	451.2 ± 6.6
543.3 K, 5100 kPa, w2 = 0.5	437.7 ± 7.5
549.3 K, 5400 kPa, w2 = 0.51	427.9 ± 6.9
549.4 K, 8700 kPa, w2 = 0.51	461.2 ± 5.5
553 K, 5100 kPa, w2 = 0.5	415.1 ± 8.9
557.2 K, 5300 kPa, w2 = 0.255	427.1 ± 6.3
557.2 K, 8200 kPa, w2 = 0.255	460.9 ± 4.9
563.5 K, 5100 kPa, w2 = 0.5	394 ± 7.9
575.1 K, 5100 kPa, w2 = 0.5	372.9 ± 9.2
583.8 K, 5100 kPa, w2 = 0.5	348.2 ± 14
591.2 K, 5100 kPa, w2 = 0.5	319 ± 16

O [water]
[2], Liquid
Conditions	mass density [kg/m3]
286 K, 3000 kPa	1000.7 ± 3.1
288.3 K, 5000 kPa	1001.4 ± 3.3
303.5 K, 5000 kPa	996.5 ± 3.2
305 K, 3000 kPa	996.2 ± 3.3
322.6 K, 3000 kPa	988.4 ± 3.6
324.8 K, 5000 kPa	990.7 ± 3.3
343.4 K, 3000 kPa	977.7 ± 3.8
344.3 K, 5000 kPa	981.8 ± 4.1
356.4 K, 3000 kPa	969 ± 3.6
358.6 K, 5000 kPa	966.8 ± 4.6
372.3 K, 5000 kPa	957.1 ± 4.3
374.7 K, 3000 kPa	962.3 ± 4.1
384 K, 5000 kPa	947 ± 4.6
391.2 K, 3000 kPa	945 ± 4.7
393.6 K, 5000 kPa	938.5 ± 4.2
403.8 K, 5000 kPa	932.6 ± 4.3
412.5 K, 3000 kPa	927.7 ± 4.3
414.2 K, 5000 kPa	923 ± 4.7
423.2 K, 5000 kPa	915.2 ± 5.2
423.8 K, 3000 kPa	920.4 ± 4.9
432.8 K, 5000 kPa	903.3 ± 5.3
442.5 K, 3000 kPa	899.6 ± 5.1
442.7 K, 5000 kPa	893.8 ± 4.9
452.6 K, 5000 kPa	884.3 ± 4.6
462 K, 5000 kPa	876.7 ± 4.7
462.5 K, 3000 kPa	880.9 ± 4.7
471.4 K, 3000 kPa	873.1 ± 5.2
474.3 K, 5000 kPa	864.5 ± 5
483.9 K, 3000 kPa	858.3 ± 6.6
484.1 K, 5000 kPa	854.6 ± 6.5
491.4 K, 5000 kPa	839.5 ± 7
492.5 K, 3000 kPa	841.7 ± 8
500.4 K, 3000 kPa	827.9 ± 7.6
502.5 K, 5000 kPa	824.9 ± 6
511 K, 5000 kPa	814.1 ± 5.9

N#N [nitrogen]
mass density [kg/m3], [2], Gas
Conditions	293.2 K	473.2 K
100 kPa	1.15	0.68
600 kPa	7.36 ± 1.5	3.79 ± 1.5
1000 kPa	–	8 ± 1.5
1100 kPa	11.22 ± 1.5	–
1600 kPa	17.77 ± 1.5	11.8 ± 1.5
2100 kPa	23.64 ± 1.5	14.69 ± 1.5
2600 kPa	27.88 ± 1.5	–
3100 kPa	33.96 ± 1.5	21.05 ± 1.5
3600 kPa	40.54 ± 1.6	–
4000 kPa	–	27.65 ± 1.6
4100 kPa	46.43 ± 1.6	–
4600 kPa	53.49 ± 1.6	–
5100 kPa	58.28 ± 1.6	–
5600 kPa	62.2 ± 1.5	–
6000 kPa	69.11 ± 1.5	–

C1CCCCC1 [cyclohexane]
[2], 5000 kPa, Fluid (supercritical or subcritical phases)
Conditions	mass density [kg/m3]
287 K	788.3 ± 5.7
305.9 K	763.7 ± 4.5
324.9 K	752.1 ± 3.7
351 K	731.8 ± 4.4
375 K	704.3 ± 4.7
394.8 K	686.7 ± 4.3
416.6 K	666.5 ± 4.9
431.9 K	646.2 ± 5.7
452.4 K	620.2 ± 5.2
475.1 K	595.5 ± 5.6
488.4 K	573.5 ± 7.1
504.4 K	546.3 ± 7.5
513.9 K	527.5 ± 8.2
522.6 K	510.3 ± 9.3
531.9 K	487 ± 11
543 K	454.5 ± 12
553.2 K	426.2 ± 19
561.7 K	365.6 ± 36
572.1 K	259.5 ± 32
584.2 K	187 ± 19
592.5 K	167 ± 8
603.6 K	149.3 ± 5.6
618.8 K	133 ± 4.6
635 K	118.3 ± 3.5
654.2 K	109.8 ± 3.3
672.3 K	96.5 ± 3.2
687.5 K	92 ± 2.5
698.5 K	89.9 ± 2.4
